Type in all cases: binding
Assay [1] addresses T1, CALP (Homo sapiens, UniProt Q9HD26).
T1 construct: Recombinant CAL PDZ was expressed and purified in E. coli as previously described; made in house; host or cells: E. coli
Briefly: Dose-dependent CALP inhibition by FP competition assay, large-volume format. Particulars: one experimental replicate. Here is the method:
The following compounds of Table 2 were obtained from commercial sources, and evaluated in fluorescence polarization (FP) competition assay.
Specifically, dose-dependent CALP inhibition of compounds of examples 36-41 was assessed by FP competition assays. Experiments were conducted similarly to HTS assays described above but in large-volume format. Briefly, CALP was expressed and purified as previously described (Amacher et al., 2011). A fluorescently labeled peptide, NPG32, was commercially obtained (sequence: F*-[…] where F* denotes a N-terminal fluorescein group coupled via an aminohexanoic acid linker). CALP was dialyzed into FP storage buffer (25 mM Tris pH 8.5, 150 mM NaCl, 0.1 mM TCEP, and 0.02% sodium azide). CALP was diluted into FP buffer (FP storage buffer supplemented with 0.1 mg/mL IgG and 30 μM thesit) containing 31.58 nM NPG32. The protein/reporter solution was aliquoted into 384-well plates with each well containing 19 μL of the mixture. Twelve-point titrations (2-fold serial dilutions) of the test compounds were prepared in 25% DMSO. To each well, 1 μL of compound was added. […] Plates were incubated at room temperature for 30 min before anisotropy was measured. […] Except for Examples 37-38, the reported potency for all compounds was calculated by averaging three experimental replicates.

Assay [2] has as its target T2, CAL PDZ (Homo sapiens, UniProt Q9HD26).
T2 construct: Recombinant CAL PDZ was expressed and purified in E. coli as previously described; made in house; host or cells: E. coli
Briefly: CALP fluorescence polarization (FP) competition assay, HTS format with dose-response validation. The arrangement: Inhibitory activity CALP at 100 μM: unit not given here. To be noted: for IC50: read-out: Inhibitory activity CALP IC50. Here is the method: (§1) CALP and/or Dab2 inhibition assays were performed in biochemical “mix-and-measure” format in order to evaluate the effects on activation and inhibition of CALP and/or Dab2 by the compounds of the disclosure. Brief assay procedure is provided below. Unless otherwise specified, all of the compounds were obtained from commercial sources.
CALP inhibitors were identified by fluorescence polarization (FP) competition assays in high-throughput screening (HTS) format. Recombinant CAL PDZ was expressed and purified in E. coli as previously described (Amacher et al., Acta Cyst. (2011) F67, 600-603), and dialyzed into FP storage buffer (25 mM Tris pH 8.5, 150 mM NaCl, 0.1 mM TCEP, and 0.02% sodium azide). A fluorescent reporter peptide, NPG32, was purchased commercially with the following sequence: F*-[…] (F* denotes a N-terminal fluorescein group coupled via an aminohexanoic acid linker). Initial single-dose HTS was performed with libraries comprising ˜52,000 compounds (FAST Lab—Novartis Institutes for BioMedical Research). First, 25 nL of 5 mM small-molecule was transferred to 1536-well Grenier plates. 3 μL of 3.708 μM CALP in FP buffer (FP storage buffer supplemented with […]) was added, and plates were incubated for 10 min. Next, 3 μL of 60 nM NPG32 (in FP buffer) was added. Final reaction volumes were 6 μL and contained 1.854 μM CALP, 30 nM NPG32, and 20.83 μM small-molecule. […] Plates were incubated for 30 minutes at room temperature and anisotropy was measured (480 nm excitation wavelength and 535 nm emission wavelength). […] Compounds were validated in triplicate using 8-point dilution series in half-log increments with two orthogonal assays: FRET and TMR-based FP assay. For the FRET assay, a cerulean-CALP fusion protein (Cer-CALP) was expressed and purified as previously described (Zhao et al., 2018). A fluorescent reporter peptide, PRC34, was purchased commercially with the following sequence: TMR*-[…] (TMR* denotes a N-terminal tetramethylrhodamine group coupled via an aminohexanoic acid linker). First, 40 nL of compound was transferred to the plates. 5 μL of 16.632 μM Cer-CALP was added, and plates were incubated for 30 min. Next, 5 μL of 16.632 μM PRC34 was added, and plates were incubated for 30 min. Final reaction volumes were 10 μL and contained 8.316 μM CALP, 8.316 μM […], and variable concentrations of small-molecule. Negative controls contained equivalent amounts of DMSO (0.4%), while positive controls contained 100 μM NPG30 (sequence: […]). Plates were incubated for 30 min, and emission at 475 nm and 575 nm was measured following excitation at 430 nm. TMR FP assays were conducted as described for the FITC-based assay with the following exceptions: TMR was used as the reporter peptide, the final CALP concentration was 11.952 μM, and the positive control used was 100 μM NPG30.
For orientation: In fluorescence polarisation assays a small probe gives low polarisation when free and higher when bound to something large.

In assay [3] the target is T3, Human-Dab2-DH (Homo sapiens, UniProt P98082).
T3 construct: fused on or other part: N-terminal 10xHis tag with a 3C protease site, cleaved off unless otherwise indicated
T3 sequence (P98082 33-178 limits assumed): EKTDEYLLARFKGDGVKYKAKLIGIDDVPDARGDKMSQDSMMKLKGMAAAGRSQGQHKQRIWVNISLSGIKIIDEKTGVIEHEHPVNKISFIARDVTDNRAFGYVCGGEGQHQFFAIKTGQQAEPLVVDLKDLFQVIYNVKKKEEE
Briefly: Dab2 FP competition assay via HTS. To be noted: read-out: Inhibitory activity Dab2 IC50. On the procedure: as §1
Dab-2 inhibitors were also identified by FP competition assays via HTS. Human-Dab2-DH, residues 31-191 (Uniprot: P98082), and trDab2-DH (residues 33-178) was subcloned into the pET16b vector via PCR utilizing the restriction enzyme sites of Xhol and BamHI. The construct was designed with a 3C protease cleavage site directly upstream and in-frame with the protein coding sequence. DNA was sequence verified. (0.1 mM) IPTG was used to induce protein expression in E. coli BL21(DE3)RIL cells, after reaching an O.D. of […]. […] Followed by 3C cleavage of the 10×His tag (unless otherwise indicated), and a second nickel affinity column to remove the 3C protease and excess tag. Dab2-DH was dialyzed into FP storage buffer (25 mM Tris pH 8.0, 150 mM NaCl, 0.1 mM TCEP, and 0.02% sodium azide). Fluorescent reporter peptides, TIVR*STA02 (TMR*-[…]) and TMR*STA03 (TMR*-[…]), were purchased commercially with the following sequence where TMR* denotes a N-terminal tetramethylrhodamine group coupled via an aminohexanoic acid linker. An unlabled positive control peptide STA02 ([…]) was also purchased commercially. Inhibitors of Dab2-DH were identified from a variety of sources with various protocols outlined below.
For screens conducted at the Novartis Institutes for BioMedical Research FAST Lab, single-dose HTS assays were performed with libraries comprising ˜52,000 compounds at 20 μM doses. Experiments were conducted as described for screens at the University of Pittsburgh Lab and Drug Discovery Institute, except that Dab2-DH, not trDab2-DH, was used as the protein source.
For screens conducted at the Broad Institute, compound transfers were done using a 384-well pin tool equipped with 100 nL hydrophobic surface coated pins. 100 nL of DMSO (negative control), STA02 (positive control), or library compounds were dispensed into 20 μL of protein (200 nM) and reporter (F*-STA02, 30 nM) mixture with 0.1 mg/ml mouse IgG and 0.5 mM Thesit. Final concentrations in the mixture were DMSO ([…]), STA02 (20 μM), and compounds (18 μM). Plates were incubated for 35-45 minutes before measuring polarization. Compounds were tested in duplicates on two separate plates. Positive and negative controls were included in each individual plate.
For experiments conducted at the University of Pittsburgh Lab and Drug Discovery Institute, single-dose HTS assays were performed with a library containing ˜220,000 compounds. On the day of screening, a master mix of equal parts trDab2-DH (900 nM) and TMP-STA03 (90 nM) was prepared. Compound plates containing assay ready 2 μL aliquots of a 1 mM stock solution in DMSO were thawed, reconstituted in FP buffer to a concentration of 30 μM in 3% DMSO, and five μL transferred to low volume assay plates using a Perkin Elmer MDT. Ten μL of master mix were added by a Microflo bulk liquid dispenser (Biotek, Winooski, VT) and processed as described in the general protocol above. Each plate contained 32 wells of positive (Dab2-DH+probe+DMSO) and negative (Dab2-DH+probe +10 μM STA03) controls. Plates were read at 1.5-h and 4-h on the Envision multilabel reader.

The structures appear in SMILES notation. Non-standard residues stand in square brackets, D forms with d. Residues, ends and D or L forms follow the SMILES beside them. Tle = CC(C)(C)[C@H](N)C(=O)O

For orientation: IC50 means the midpoint of a concentration-inhibition curve. Broadly, the Kd is the free concentration of one partner at which half of the binding sites on the other are occupied at equilibrium, for simple one-to-one binding.

In the case of `O=c1[nH]c2ccc(S(=O)(=O)Nc3cccc4ccccc34)cc2[nH]1` [Example 37, N-(naphthalen-1-yl)-2-oxo-2,3-dihydro-1H-benzo[d]imidazole-5-sulfonamide], in assay [1], the “CALP binding in FP competition” value was “absence of binding”.

`O=C(O[C@@H]1Cc2c(O)cc(O)cc2O[C@@H]1c1cc(=O)c(O)c2c(O)c(O)cc([C@H]3Oc4cc(O)cc(O)c4C[C@H]3O)c2c1)c1cc(O)c(O)c(O)c1` [Example 1, (2R,3R)-5,7-dihydroxy-2-(3,4,5-trihydroxy-6-oxo-1-((2R,3R)-3,5,7-trihydroxychroman-2-yl)-6H-benzo[7]annulen-8-yl)chroman-3-yl 3,4,5-trihydroxybenzoate]: in assay [2], the “Inhibitory activity CALP at 100 μM” value was −65.53 and the IC50 stood at 11.3 µM. Also, the IC50 in assay [3] stood at 2.45 µM.

With `CC1COC2C3=C(C(=O)C=CC3=O)C3OC(=O)C4CCC5C1CCC25C43` (stereo not drawn) [Example 2, 6-methyl-2a,2a^1,3,4,4a,5,6,7,8a,12b-decahydro-2H-4a^1,5-ethanofuro[4′,3′,2′:4,10]anthra[9,1-bc]oxepine-2,9,12-trione], in assay [2], the “Inhibitory activity CALP at 100 μM” value is −67.12 and the IC50 was 1.3 µM. In assay [3], the IC50 was 0.22 µM.

Consider `Oc1ccc(N2CCN(c3ncccn3)CC2)cc1` [Example 5, 4-(4-(pyrimidin-2-yl)piperazin-1-yl)phenol], for which the “Inhibitory activity CALP at 100 μM” value in assay [2] is −46.33. The IC50 stood at 40.5 µM in assay [2] and 20.6 µM in assay [3].

Consider `O=C1c2c(O)c(Cl)cc3c2[C@@]2(Oc4cc(Cl)c(O)c5c4[C@]3(O2)[C@@H]2O[C@@H]2C5=O)[C@@H]2O[C@H]12` [Example 3, (1aR,1bS,5aS,6aR,6bS,11aS)-3,9-dichloro-4,10-dihydroxy-1a,5a,6a,11a-tetrahydro-5H,11H-1b,6b-epoxyoxireno[2′,3′:2,3]naphtho[1,8-bc]oxireno[2′,3′:2,3]naphtho[1,8-ef]oxepine-5,11-dione], for which, in assay [2], the “Inhibitory activity CALP at 100 μM” value was −80.85. Further, the IC50 in assay [2] was 25.3 µM; in assay [3], 0.26 µM.

For `O=c1[nH]c2ccc(S(=O)(=O)Nc3ccc(O)cc3)cc2[nH]1` [Example 38, N-(4-hydroxyphenyl)-2-oxo-2,3-dihydro-1H-benzo[d]imidazole-5-sulfonamide], the “CALP binding in FP competition” value in assay [1] is “absence of binding”.

For `C/C1=C/CC(O)/C=C\C(C)C(O)C(C)/C=C(\C)C(=O)c2c(O)c(C)cc3c2C(=O)C(Cl)=C(NC(=O)/C=C/C=C/C=C/C(C)C(O)CC1=O)C3=O` (stereo not drawn) [Example 15, 2-chloro-13,19,23,28-tetrahydroxy-12,16,22,24,26,29-hexamethyl-13,14,19,22,23,24-hexahydro-1H-3,31-methanobenzo[e][1]azacyclononacosine-1,5,15,27,32(4H,12H,18H)-pentaone], in assay [2], the “Inhibitory activity CALP at 100 μM” value is reported as −54.29 and the half-maximal inhibitory concentration (IC50) came to 4.71 µM.

In the case of `COc1cc(O)c2c(c1)oc(=O)c1c3cc(O)c(O)cc3oc21` [Example 7, 1,8,9-trihydroxy-3-methoxy-6H-benzofuro[3,2-c]chromen-6-one], in assay [2], the “Inhibitory activity CALP at 100 μM” value is on record as −74.42 and the IC50 was found to be 1.24 µM.

`CC[C@@]1(O)C[C@H](O[C@H]2C[C@H](N(C)C)[C@H](O)[C@H](C)O2)c2c(cc3c(c2O)C(=O)c2c(O)ccc(O)c2C3=O)[C@H]1C(=O)OC` [Example 14, methyl (1R,2R,4S)-4-(((2R,4S,5S,6S)-4-(dimethylamino)-5-hydroxy-6-methyltetrahydro-2H-pyran-2-yl)oxy)-2-ethyl-2,5,7,10-tetrahydroxy-6,11-dioxo-1,2,3,4,6,11-hexahydrotetracene-1-carboxylate]: in assay [2], the “Inhibitory activity CALP at 100 μM” value is given as −67.06 and the IC50 turned out to be 0.73 µM.

For the molecule `Cc1c(O)c(O)c(O)c(C=O)c1C=O` [Example 4, 3,4,5-trihydroxy-6-methylphthalaldehyde], in assay [2], the “Inhibitory activity CALP at 100 μM” value is −94.09 and the IC50 was 10.2 µM. In addition, in assay [3], the IC50 was 3.42 µM.

`CC(C)[C@H](NC(=O)[C@H](CCC(N)=O)NC(=O)[C@H](Cc1c[nH]c2ccccc12)NC(=O)[C@H](CCCNC(=N)N)NC(=O)[C@H](CO)NC(=O)[C@H](CC(N)=O)NC(=O)[C@H](C)N)C(=O)N[C@H](C(=O)N[C@@H](CCCNC(=N)N)C(=O)N[C@H](C(=O)O)C(C)(C)C)[C@@H](C)O` [NPG35, reference compound] (H-ANSRWQVTR[Tle]-OH): the Kd in assay [2] (unlabeled peptide used as positive control) was ≤ 1 µM.

Source of the values: patent US20230338340A1, “Methods of Treating Cystic Fibrosis” (The Trustees of Dartmouth College, priority 2020, published 2023).
